# Several values for one entry are separate records, joined by “and”; a condition that tells them apart may be missing. Identical values can stand only once.
# Legend:
# SW1 tumors = experiment: cDNA microarray gene expression profiling of SW1 tumors; type: in vivo, mouse
# From the text: FIGS. 8A and 8B show gene profiling analysis of SW1 tumors expressing the ATF2^51-100 peptide. Tumors generated, in the absence or presence of a peptide, were used as source of mRNA for array analysis of 10K mouse genes (see Example 5). […] In all cases, the data represent analyses carried out 4 times from 4 different pools of tumors.
# To elucidate the molecular pathways affected by expression of the ATF2^51-100 peptide, we used cDNA microarray analysis to compare the RNA expression profiles of SW1 tumors that express this peptide or a control vector (FIG. 8A). The 10k mouse Gem 2 gene set (Incyte Genomics Inc, Palo Alto, Calif.) was printed at the NCI on poly-L-lysine-coated glass using a Biorobotics TASII arrayer (Cambridge, England). All protocols for manufacturing and hybridization of microarrays are posted on the NCI web site (see, e.g., nciarray.nci.nih.gov). Approximately 20 μg of total RNA were used in the reverse transcription reaction to directly label the probe with Cy-5 dUTP or Cy-3 dUTP (Amersham). Hybridizations were performed at 65° C. for 12-18 h in a hybridization volume of 35 μL. The hybridized arrays were scanned using an Axon GenePix 4000 scanner (Union City, Calif.) and fluorescence data were collected using the GenePix software.
# mRNA was prepared from a pool of 4 tumors obtained from two different experiments. In both cases, tumors were excised 2 weeks after subcutaneous injection of cells. Because the fluorescently labeled Cy dyes may incorporate into the reverse-transcribed cDNA with different efficiencies, RNA isolated from both cell types was always labeled with both combinations of Cy dyes. […] SW1 vector control cells were labeled with Cy-3 (F532) and the SW1-ATF 51-100 cells were labeled with Cy-5 (F635).
# SW-1 cells = experiment: Caspase and PARP cleavage immunoblot in SW-1 cells; type: cell-based, mouse; details: peptides by transfection, UCN-01 (5 μm) 24 hours
# Protocol: Human melanoma cells LU1205 were transfected with the nucleic acid molecules that encode either ATF2^51-100 peptide or ATF2^51-60 peptide. Twenty-four hours after transfection, cells were treated with of UCN-01 (5 μm) for 24 hours. Immunoblotting analysis was performed using caspase 9 and PARP antibodies, and β-actin was used as a loading control (FIG. 6A). The same experiment was performed in SW-1 cells (FIG. 6B). Stars point to the position of the uncleaved form whereas arrows point to the cleaved products.
# Effect on Apoptosis. Assessed next was the degree of apoptosis in SW1 cells under normal growth (spontaneous) as well as following treatment with chemotherapeutic drugs. Cells were analyzed to detect spontaneous (basal) or induced apoptosis [following treatment with the kinase inhibitor UCN-01 (kindly provided by NCI repository) for 36 hours]. Apoptosis was measured by using FACS (Ivanov et al., Mol. Cell, 2001, 7:517-28) to quantify the percentage of hypodiploid nuclei undergoing DNA fragmentation. Nucleation as a marker of apoptosis was monitored via DAPI staining of cells at indicated time points after their treatment. Caspase activity was monitored by immunoblots using antibodies to caspase 9 (Santa Cruz). PARP cleavage was monitored by corresponding antibodies (PharMingen).
# [1] = tumors expressing peptide vs control vector
substance,measurement,setting,value
"ATF2^51-100: amino-terminal peptide of ATF2, amino acid residue 51 to 100 (about a 50 amino acid peptide), expressed in tumor cells (MTLKFGPARNDSVIVADQTPTPTRFLKNCEEVGLFNELASPFENEFKKAS; UniProt P15336 51-100, looked up, fragment)",Ratio ATFp2-Cy5 vs parental control-Cy3: Ifit3 (interferon-induced protein with tetratricopeptide repeats 3),"SW1 tumors; down regulated, IMAGE: 1210036, hybridizations #1-#4, listed as ATFp2",0.4750 and 0.4768 and 0.3824 and 0.3361
same,Ratio ATFp2-Cy5 vs parental control-Cy3: Ensa (endosulfine alpha),"SW1 tumors; down regulated, IMAGE: 1278511, hybridizations #1-#4, listed as ATFp2",0.4501 and 0.4517 and 0.4544 and 0.4479
same,Ratio ATFp2-Cy5 vs parental control-Cy3: Myo5b (myosin Vb),"SW1 tumors; down regulated, IMAGE: 1378935, hybridizations #1-#4, listed as ATFp2",0.2748 and 0.2758 and 0.2551 and 0.2439
same,Ratio ATFp2-Cy5 vs parental control-Cy3: Mtap6 (microtubule-associated protein 6),"SW1 tumors; down regulated, IMAGE: 1430217, hybridizations #1-#4, listed as ATFp2",0.3697 and 0.3710 and 0.5261 and 0.7243
same,expression of Fas-associated genes,SW1 tumors; [1],down-regulation
same,"expression of growth-associated genes (epidermal growth factor, hepatoma-derived growth factor, insulin-like growth factor) and interferon-associated genes",SW1 tumors; [1],consistent down-regulation
same,expression of tumor necrosis factor-related genes,SW1 tumors; [1],strongly upregulated
same,Ratio ATFp2-Cy5 vs parental control-Cy3: Kifap3 (kinesin-associated protein 3),"SW1 tumors; upregulated, IMAGE: 331395, hybridizations #1-#4, listed as ATFp2",2.1192 and 2.1268 and 2.9811 and 3.9220
same,"Ratio ATFp2-Cy5 vs parental control-Cy3: Hbb-b1 (hemoglobin, beta adult major chain)","SW1 tumors; upregulated, IMAGE: 332935, hybridizations #1-#4, listed as ATFp2",3.1997 and 3.2112 and 2.7725 and 3.6146
same,"Ratio ATFp2-Cy5 vs parental control-Cy3: Hbb-b1 (hemoglobin, beta adult major chain)","SW1 tumors; upregulated, IMAGE: 518979, hybridizations #1-#4, listed as ATFp2",2.8994 and 2.9099 and 2.4766 and 2.5621
same,"Ratio ATFp2-Cy5 vs parental control-Cy3: D0H4S114 (DNA segment, human D4S114)","SW1 tumors; upregulated, IMAGE: 535754, hybridizations #1-#4, listed as ATFp2",3.0625 and 3.0736 and 4.2117 and 3.5432
same,"Ratio ATFp2-Cy5 vs parental control-Cy3: Scyb13 (small inducible cytokine subfamily B (Cys-X-Cys), member 13)","SW1 tumors; upregulated, IMAGE: 596683, hybridizations #1-#4, listed as ATFp2",3.6935 and 3.7069 and 4.4104 and 4.1619
same,Ratio ATFp2-Cy5 vs parental control-Cy3: C85356 (expressed sequence C85356),"SW1 tumors; upregulated, IMAGE: 776163, hybridizations #1-#4, listed as ATFp2",6.2407 and 6.2633 and 5.4673 and 4.7632
same,Ratio ATFp2-Cy5 vs parental control-Cy3: ESTs,"SW1 tumors; upregulated, IMAGE: 809168, hybridizations #1-#4, listed as ATFp2",2.6457 and 2.6552 and 2.6858 and 2.3889
same,Ratio ATFp2-Cy5 vs parental control-Cy3: Mme (membrane metallo endopeptidase),"SW1 tumors; upregulated, IMAGE: 849871, hybridizations #1-#4, listed as ATFp2",4.8477 and 4.8652 and 4.8096 and 4.5247
same,Ratio ATFp2-Cy5 vs parental control-Cy3: Ogn (osteoglycin),"SW1 tumors; upregulated, IMAGE: 902951, hybridizations #1-#4, listed as ATFp2",2.7606 and 2.7705 and 2.7398 and 2.3263
same,Ratio ATFp2-Cy5 vs parental control-Cy3: RIKEN cDNA 1110068L01 gene,"SW1 tumors; upregulated, IMAGE: 960604, hybridizations #1-#4, listed as ATFp2",2.7162 and 2.7260 and 3.6427 and 3.9752
same,"Ratio ATFp2-Cy5 vs parental control-Cy3: Akr1c13 (aldo-keto reductase family 1, member C13)","SW1 tumors; upregulated, IMAGE: 1052178, hybridizations #1-#4, listed as ATFp2",3.6319 and 3.6450 and 3.4859 and 3.4284
same,Ratio ATFp2-Cy5 vs parental control-Cy3: Tna (tetranectin (plasminogen-binding protein)),"SW1 tumors; upregulated, IMAGE: 1068748, hybridizations #1-#4, listed as ATFp2",5.0430 and 5.0612 and 4.9219 and 4.6123
same,Ratio ATFp2-Cy5 vs parental control-Cy3: Top1 (topoisomerase (DNA) I),"SW1 tumors; upregulated, IMAGE: 1107479, hybridizations #1-#4, listed as ATFp2",2.6799 and 2.6896 and 3.4635 and 3.3665
same,Ratio ATFp2-Cy5 vs parental control-Cy3: Il1b (interleukin 1 beta),"SW1 tumors; upregulated, IMAGE: 1139544, hybridizations #1-#4, listed as ATFp2",2.5423 and 2.5514 and 3.4806 and 3.3033
same,Ratio ATFp2-Cy5 vs parental control-Cy3: Igfbp2 (insulin-like growth factor binding protein 2),"SW1 tumors; upregulated, IMAGE: 1277469, hybridizations #1-#4, listed as ATFp2",3.2649 and 3.2767 and 3.3268 and 3.0043
same,Ratio ATFp2-Cy5 vs parental control-Cy3: Igj (immunoglobulin joining chain),"SW1 tumors; upregulated, IMAGE: 1277614, hybridizations #1-#4, listed as ATFp2",3.0715 and 3.0826 and 3.4986 and 4.0870
same,Ratio ATFp2-Cy5 vs parental control-Cy3: Sp3 (trans-acting transcription factor 3),"SW1 tumors; upregulated, IMAGE: 1399769, hybridizations #1-#4, listed as ATFp2",2.3816 and 2.3902 and 3.1712 and 3.6075
same,Ratio ATFp2-Cy5 vs parental control-Cy3: Efemp1 (epidermal growth factor-containing fibulin),"SW1 tumors; upregulated, IMAGE: 1480170, hybridizations #1-#4, listed as ATFp2",2.6354 and 2.6449 and 2.6270 and 2.3980
same,Ratio ATFp2-Cy5 vs parental control-Cy3: Lum (lumican),"SW1 tumors; upregulated, IMAGE: 2101997, hybridizations #1-#4, listed as ATFp2",2.5956 and 2.6050 and 2.6414 and 2.8732
same,activation of caspase 9 (cleavage fragments),SW-1 cells,activation of caspase 9 even prior to treatment with UCN-01

# Source: patent US20090281025A1, “INHIBITION OF TUMOR GROWTH AND METASTASIS BY ATF2-DERIVED PEPTIDES” (Mount Sinai School Of Medicine of New York University, priority 2004, published 2009)
